“And” between values parts separate entries of the source, which are not always exact repeats. Equal values may be shown once. No end group written: not given here.
Key:
[1] = test system: penile erection in patients with previously diagnosed ED; assay: Erectile response (Rigiscan tumescence and rigidity) after intracavernous injection, patients with no prior PGE1; format: in vivo, human; conditions: Phase 1 (n=9)
[2] = test system: penile erection in patients with prior use of PGE1; assay: Erection in patients with clinical history of pain with prostaglandin therapy (case reports); format: in vivo, human; conditions: Case No. 2; 10 μg PGE1 at home
Experimental: (§1) As detailed below, one of three different modes of administration of NO producing agents were used depending upon the patient. In particular, each of these individuals received a NO donor either through the use of a nitrospray such as Nitrolingual™ or a transdermal patch delivering a NO donor compound, and in three cases, a combination of PGE1 and 50 μg of SNP (in saline or phosphate buffered saline (PBS)).

[3] = test system: penile pain in patients using PGE1; conditions: cited from earlier work
[4] = test system: penile pain in patients with prior use of PGE1; assay: Penile pain in patients with clinical history of pain with prostaglandin therapy (case reports); conditions: human, in vivo
Experimental: as §1

[5] = test system: penile pain in patients with previously diagnosed ED; assay: Patient-reported drug-related pain after intracavernous injection, patients with no prior PGE1; format: in vivo, human; conditions: Phase 2; IC PGE1 5 and 15 μg alone or with SNP 50 μg
Experimental: Patients were fifted with the Rigiscan™ tumescence and rigidity recording device. The patients were injected with the intracavernous (IC) drug using up to 2 different doses (PGE1 alone or in combination with sodium nitroprusside (SNP50 μg)) and monitored in real-time for their erectile response. Patients were only given a second injection (higher dose PGE1) if the response to the first injection was less than 70% of maximum tumescence and rigidity. In addition, patients were asked to report any occurrence of pain specific to the injection, but not related to acute discomfort associated with the needle prick.

[6] = test system: human cavernous artery and cavernosal smooth muscle; conditions: cited from earlier work; for interaction of relaxant effects of the two agents: human cavernous artery and cavernosal smooth muscle; for relaxation response: isolated cavernous artery and corpus cavernosum
[7] = in vivo; cited from earlier work

CCCCC[C@H](O)/C=C/[C@H]1[C@H](O)CC(=O)[C@@H]1CCCCCCC(=O)O [PGE1, prostaglandin E1]
patients with a poor response to both injections ([1]; IC PGE1 5 μg at 1st visit, PGE1 5 μg+SNP 50 μg at 2nd visit): 4 of 9
patients who experienced full tumescence ([1]; lowest dose of PGE1 alone (5 μg IC)): 2/9
erectile response [2]: poor response
patients reporting a pain response ([3]; repeated / prolonged use of PGE1): 40 to 45% and 40-45%
individuals with a pain response / frequency of pain per injection ([3]; single use of PGE1): 3 to 10%
men reporting penile pain ([3]; transurethral administration, clinic testing): 35.7%
duration of pain [4]: three to four hours
patients who experienced drug-related pain [5]: None

[NH-]c1c[n+](N2CCOCC2)no1 [SIN-1, 3-morpholinosydnonimine molsidomine]
interaction of relaxant effects of the two agents [6]: non-synergistic independent relaxant effects
relaxation response [6]: capacity to induce complete relaxations

O=[N+]([O-])OCC(CO[N+](=O)[O-])O[N+](=O)[O-] [glyceryl trinitrate]
concentration in plasma [7]: 0.2 to 0.4 ng/mL

vasoactive intestinal peptide (HSDAVFTDNYTRLRKQMAVKKYLNSILN; ends and bridges not checked; UniProt P01282 125-152, looked up) [VIP]
interaction of relaxant effects of the two agents [6]: non-synergistic independent relaxant effects
relaxation response [6]: not capable of causing concentration dependent relaxation responses

From patent US6747063B2, “Combination therapy for treatment of erectile dysfunction” (Cellegy Pharmaceuticals, Inc., priority 1996, dated 2004)
